Measured values published in ChEMBL document CHEMBL3621179, “Styrylphenylphthalimides as Novel Transrepression-Selective Liver X Receptor (LXR) Modulators” (ACS Med Chem Lett, 2015).
The source made the active and inactive calls. The rule behind the calls is not given here.

Assays:
[1] = molecular target: T1, Peroxisome proliferator-activated receptor alpha (Homo sapiens) (UniProt Q07869); assay: Agonist activity at PPAR-alpha (unknown origin) by luciferase reporter gene assay
T1 sequence (whole entry): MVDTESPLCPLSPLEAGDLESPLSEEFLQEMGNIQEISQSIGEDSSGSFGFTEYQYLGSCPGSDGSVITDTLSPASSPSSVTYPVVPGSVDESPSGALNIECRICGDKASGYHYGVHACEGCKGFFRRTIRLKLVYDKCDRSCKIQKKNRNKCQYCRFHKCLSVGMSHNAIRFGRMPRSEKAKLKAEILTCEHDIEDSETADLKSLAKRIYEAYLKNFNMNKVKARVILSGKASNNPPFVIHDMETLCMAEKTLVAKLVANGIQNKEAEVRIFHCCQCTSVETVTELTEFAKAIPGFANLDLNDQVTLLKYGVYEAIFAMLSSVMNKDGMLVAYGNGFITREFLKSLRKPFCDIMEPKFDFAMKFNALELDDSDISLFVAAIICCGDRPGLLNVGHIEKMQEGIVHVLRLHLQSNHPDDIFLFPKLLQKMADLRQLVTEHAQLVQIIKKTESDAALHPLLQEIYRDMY

[2] = molecular target: Oxysterols receptor LXR-alpha (Homo sapiens, UniProt Q13133); assay: Antagonist activity at human LXR-alpha transfected in HEK293 cells after 16 hrs by luciferase reporter gene assay in presence of 0.3 uM N-(4-(1,1,1,3,3,3-hexafluoro-2-hydroxypropan-2-yl)phenyl)-N-(2,2,2-trifluoroethyl)benzenesulfonamide; format: cell-based
[3] = molecular target: T2, Oxysterols receptor LXR-beta (Homo sapiens, UniProt P55055); assay: Antagonist activity at human LXR-beta transfected in HEK293 cells after 16 hrs by luciferase reporter gene assay in presence of 0.1 uM N-(4-(1,1,1,3,3,3-hexafluoro-2-hydroxypropan-2-yl)phenyl)-N-(2,2,2-trifluoroethyl)benzenesulfonamide; format: cell-based
THP-1 [4] = assay: Inhibition of LPS-induced IL-6 production in human THP1 cells transfected with LXR-beta CRISPR/Cas9 knockout plasmid at 5 uM after 18 hrs by ELISA; format: functional, cell-based
[5] = molecular target: T3, Peroxisome proliferator-activated receptor gamma (Homo sapiens) (UniProt P37231); assay: Agonist activity at PPAR-gamma (unknown origin) by luciferase reporter gene assay
T3 sequence (whole entry): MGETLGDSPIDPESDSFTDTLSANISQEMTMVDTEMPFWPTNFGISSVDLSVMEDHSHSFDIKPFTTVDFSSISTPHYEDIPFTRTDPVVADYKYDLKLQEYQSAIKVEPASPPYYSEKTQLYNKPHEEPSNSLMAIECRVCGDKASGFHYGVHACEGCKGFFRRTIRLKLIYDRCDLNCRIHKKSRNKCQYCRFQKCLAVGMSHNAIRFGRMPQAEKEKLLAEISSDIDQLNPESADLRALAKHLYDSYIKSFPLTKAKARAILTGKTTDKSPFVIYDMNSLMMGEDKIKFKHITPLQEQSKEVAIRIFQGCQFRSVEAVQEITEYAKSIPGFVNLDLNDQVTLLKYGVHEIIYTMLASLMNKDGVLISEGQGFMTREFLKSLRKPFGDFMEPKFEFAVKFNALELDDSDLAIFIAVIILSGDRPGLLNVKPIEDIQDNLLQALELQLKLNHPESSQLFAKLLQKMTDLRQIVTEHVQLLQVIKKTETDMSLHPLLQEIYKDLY

[6] = molecular target: T4, Peroxisome proliferator-activated receptor delta (Homo sapiens) (UniProt Q03181); assay: Agonist activity at PPAR-delta (unknown origin) by luciferase reporter gene assay
T4 sequence (whole entry): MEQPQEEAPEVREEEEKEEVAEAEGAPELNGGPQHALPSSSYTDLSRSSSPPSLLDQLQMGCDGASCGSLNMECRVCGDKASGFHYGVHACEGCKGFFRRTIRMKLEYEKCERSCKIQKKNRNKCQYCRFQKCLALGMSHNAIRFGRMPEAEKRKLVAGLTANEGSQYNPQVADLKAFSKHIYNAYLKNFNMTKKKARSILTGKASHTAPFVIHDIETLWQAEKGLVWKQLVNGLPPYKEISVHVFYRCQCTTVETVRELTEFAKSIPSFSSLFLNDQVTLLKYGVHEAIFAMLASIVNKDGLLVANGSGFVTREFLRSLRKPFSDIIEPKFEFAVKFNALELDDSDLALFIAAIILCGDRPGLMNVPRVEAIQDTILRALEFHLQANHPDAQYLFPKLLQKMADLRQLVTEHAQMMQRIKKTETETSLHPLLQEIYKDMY

[7] = molecular target: T2, Oxysterols receptor LXR-beta; assay: Binding affinity to LXR-beta ligand binding domain (unknown origin) by TR-FRET assay in presence of 0.1 uM agonist N-(4-(1,1,1,3,3,3-hexafluoro-2-hydroxypropan-2-yl)phenyl)-N-(2,2,2-trifluoroethyl)benzenesulfonamide
THP-1 [8] = assay: Effect on ABCA1 gene expression in human THP1 cells at 10 uM by RT-PCR analysis; format: functional, cell-based
THP-1 [9] = assay: Effect on SREBP-1c gene expression in human THP1 cells at 10 uM by RT-PCR analysis; format: functional, cell-based

T2 sequence (P55055 whole entry): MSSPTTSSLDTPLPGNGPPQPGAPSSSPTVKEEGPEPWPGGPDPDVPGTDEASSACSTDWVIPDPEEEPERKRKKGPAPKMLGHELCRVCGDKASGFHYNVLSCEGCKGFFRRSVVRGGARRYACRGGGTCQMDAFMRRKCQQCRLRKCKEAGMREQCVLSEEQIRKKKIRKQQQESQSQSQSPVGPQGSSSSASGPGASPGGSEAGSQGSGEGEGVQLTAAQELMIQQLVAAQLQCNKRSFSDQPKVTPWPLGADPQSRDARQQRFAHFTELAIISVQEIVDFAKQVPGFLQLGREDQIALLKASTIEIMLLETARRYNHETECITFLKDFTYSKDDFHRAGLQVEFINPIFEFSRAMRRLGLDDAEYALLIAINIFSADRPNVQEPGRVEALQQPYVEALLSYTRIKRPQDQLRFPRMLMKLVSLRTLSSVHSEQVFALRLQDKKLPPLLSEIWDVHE
Oxysterols receptor LXR-alpha, sequence (Q13133 whole entry): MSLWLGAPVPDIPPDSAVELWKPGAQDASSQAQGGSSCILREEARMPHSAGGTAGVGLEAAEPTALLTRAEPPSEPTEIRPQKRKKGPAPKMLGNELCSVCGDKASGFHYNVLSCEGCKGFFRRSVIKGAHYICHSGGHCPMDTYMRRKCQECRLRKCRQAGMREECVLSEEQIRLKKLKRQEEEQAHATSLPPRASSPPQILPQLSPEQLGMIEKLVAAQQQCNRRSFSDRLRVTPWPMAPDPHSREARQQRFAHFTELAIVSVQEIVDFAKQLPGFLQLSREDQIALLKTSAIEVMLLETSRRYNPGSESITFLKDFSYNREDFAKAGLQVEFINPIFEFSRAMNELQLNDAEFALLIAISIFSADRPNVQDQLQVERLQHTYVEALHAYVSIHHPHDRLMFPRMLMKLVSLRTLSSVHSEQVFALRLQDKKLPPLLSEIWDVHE

inhibition [1]	IC50 [2]	IC50 [3]	inhibition [5]	inhibition [6]	IC50 [7]	SMILES	inhibition (THP-1 [4])	Activity (THP-1 [8])	Activity (THP-1 [9])
Active	3.3 µM	4.3 µM	Active	Active	1.8 µM	COc1ccc(/C=C/c2ccccc2N2C(=O)c3ccccc3C2=O)cc1OC	inactive	inactive	inactive
–	17 µM	21 µM	–	–	–	COc1ccc(/C=C\c2ccccc2N2C(=O)c3ccccc3C2=O)cc1OC	–	–	–
